Measured values reported in PubChem BioAssay (NCI).
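Each compound was tested at five concentrations against cells in 96-well plates for 48 hours. At the TGI there is no net growth.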

How the values were obtained:
Test in all cases: NCI-60 cell line screen, 48 h
[1] = tested on: IGROV1 ovarian
[2] = tested on: SNB-75 CNS
[3] = tested on: SK-MEL-2 melanoma
[4] = tested on: DMS 273 small cell lung
[5] = tested on: CAKI-1 renal
[6] = tested on: UO-31 renal
[7] = tested on: SR leukemia
[8] = tested on: DLD-1 colon
[9] = tested on: A549 NSCLC
[10] = tested on: K-562 leukemia
[11] = tested on: SK-MEL-5 melanoma
[12] = tested on: KM20L2 colon
[13] = tested on: M19-MEL melanoma
[14] = tested on: HCT-116 colon
[15] = tested on: LXFL 529 NSCLC
[16] = tested on: HOP-62 NSCLC
[17] = tested on: HCC-2998 colon
[18] = tested on: MOLT-4 leukemia
[19] = tested on: U251 CNS
[20] = tested on: HL-60(TB) leukemia
[21] = tested on: UACC-62 melanoma
[22] = tested on: HOP-18 NSCLC
[23] = tested on: NCI-H23 lung
[24] = tested on: SF-295 CNS
[25] = tested on: LOX IMVI melanoma
[26] = tested on: TK-10 renal
[27] = tested on: RPMI-8226 leukemia
[28] = tested on: EKVX NSCLC
[29] = tested on: RXF 393 renal
[30] = tested on: COLO 205 colon
[31] = tested on: DMS 114 small cell lung
[32] = tested on: CCRF-CEM leukemia
[33] = tested on: OVCAR-5 ovarian
[34] = tested on: M14 melanoma
[35] = tested on: 786-0 renal
[36] = tested on: SNB-19 CNS
[37] = tested on: KM12 colon
[38] = tested on: OVCAR-3 ovarian
[39] = tested on: SW-620 colon
[40] = tested on: SK-MEL-28 melanoma
[41] = tested on: SN12C renal
[42] = tested on: ACHN renal
[43] = tested on: A498 renal
[44] = tested on: HCT-15 colon
[45] = tested on: NCI-H460 lung
[46] = tested on: OVCAR-4 ovarian
[47] = tested on: SF-268 CNS
[48] = tested on: UACC-257 melanoma
[49] = tested on: NCI-H522 lung
[50] = tested on: NCI-H226 lung
[51] = tested on: SNB-78 CNS
[52] = tested on: SK-OV-3 ovarian
[53] = tested on: HOP-92 NSCLC
[54] = tested on: MALME-3M melanoma
[55] = tested on: HT29 colon
[56] = tested on: SF-539 CNS
[57] = tested on: OVCAR-8 ovarian
[58] = tested on: XF 498 CNS

Measured: TGI

Cc1ccc(-c2c(N)nc(NC#N)nc2CCC(=O)Nc2ccccc2[N+](=O)[O-])cc1
not listed: [57] | [58]
> 100 µM: all other assays above

O=C(/C=C/c1ccccc1)/C=C/c1ccccc1O
42.1 µM: [42]
39.8 µM: [28]
32.4 µM: [35]
43.8 µM: [27]
23.8 µM: [39]
1.83 µM: [54]
33.3 µM: [49]
61.5 µM: [36]
30.4 µM: [41]
81 µM: [40]
35.7 µM: [1]
33.7 µM: [15]
38.9 µM: [10]
36.9 µM: [8]
44.3 µM: [48] | [56]
70.9 µM: [43]
57.5 µM: [52]
33.8 µM: [25]
28.7 µM: [14]
72.7 µM: [7]
49.3 µM: [23]
48.8 µM: [24]
64.6 µM: [5]
32.8 µM: [44]
47.6 µM: [55]
31.1 µM: [30]
33.6 µM: [13]
54.3 µM: [9]
30.6 µM: [57]
35.3 µM: [31]
37.3 µM: [29]
31.7 µM: [37]
79.4 µM: [47]
41.6 µM: [11]
32.7 µM: [19]
0.842 µM: [38]
58.1 µM: [50]
> 100 µM: [3] | [16] | [58] | [51] | [53]
35.8 µM: [20]
50.7 µM: [34]
1.76 µM: [22]
65.3 µM: [33]
96.3 µM: [26]
63.1 µM: [18]
31.8 µM: [6]
38.8 µM: [21]
48.1 µM: [32]
34.8 µM: [12]
39.7 µM: [45]
26.8 µM: [17]

C=CC1=CSNN1
not listed: [7] | [50] | [51] | [58]
> 100 µM: all other assays above
